Data from a melting point compilation (Tetko et al.; mined from patent text by program, amines drawn as free bases though some values may be those of a salt).

| melting point [°C] | Compound |
| --- | --- |
| 214 to 215 | O=C(Nc1cc(Cl)ccc1Oc1ccc(Cl)cc1)c1ccncc1 |
| 132 | CC(C)Oc1ccc([N+](=O)[O-])cc1OCCN1C(=O)c2ccccc2C1=O |
| 75.5 to 78 | CCCCCCCCCCCCCCCCCCN1CC(O)C1 |
| 199 to 200 | CCN1c2ncc(COc3ccc(O)cc3)cc2C(=O)N(C)c2ccc(Cl)nc21 |
| 168 to 169 | CC(C)(C)OC(=O)C(C1NC(C(=O)OCc2ccccc2)C2(CCOCC2)S1)N1C(=O)c2ccccc2C1=O (centres undefined) |
| 97 to 99 | CC(C)(C)c1cc(-c2ccc(F)cc2)cc(C(C)(C)C)c1O |
| 148 to 149 | O=C1OC(Cl)(c2ccc(Cl)cc2Cl)c2ccccc21 (centres undefined) |
| 195 to 200 | CCOC(=O)Cc1csc(NC(=O)C(CC2CCCC2)c2ccc(NC(=O)c3cccnc3)cc2)n1 (centres undefined) |
| 152 to 154 | O=S(=O)(c1ccccc1)N1CCC(C(O)(c2ccc(F)c(F)c2)c2ccc(F)c(F)c2)CC1 |
| 50.5 to 52 | CC(C)=CCSC1=C(O)CC(C)(C)CC1=O |
| 73 to 74 | CCOCOCCCOn1cnc2cnc(N)nc21 |
| 154 to 156 | CC(C)(C)OC(=O)NC1CCCCCC=CC2CC2(C(=O)NS(=O)(=O)C2CC2)NC(=O)C2CC(OC(=O)c3ccc(CC(=O)O)cc3)CN2C1=O (centres undefined) |
| 154 to 155 | O=S1(=O)NCN(C2CCCCCCC2)c2cc(Cl)c(Cl)cc21 |
| 103 to 104 | NS(=O)(=O)Oc1ccc(Cl)cc1 |
| 166 to 168 | CCOC(C)=C(C#N)C(=O)Nc1cccc(Cl)c1 |
| 110 to 111 | COC1(C)CN(c2ccc([N+](=O)[O-])cc2F)C1 |
| 165 to 166 | COC(=O)N1CCC(c2ccc(N3C[C@H](CNC(C)=O)OC3=O)cc2F)CC1 |
| 119 to 129 | Cc1cccc(-c2nc(C(C)C)[nH]c2-c2ccc(F)c(-c3ccc(NS(=O)(=O)C4CC4)cc3)c2)n1 |
| 109 | CC(=O)CC(=O)Nc1ccc(Br)cc1C |

| melting point [°C] | Compound |
| --- | --- |
| 133 to 134 | c1ccc(COc2ccc(-c3nc(COc4ccc(CCCn5ccnc5)cc4)co3)cc2)cc1 |
| 215 to 216 | COc1ccc(NS(=O)(=O)c2ccc(N3CCNC3=O)cc2)cc1OC |
| 97 | Oc1ccc(Oc2ncc(C(F)(F)F)cc2F)cc1 |
| 212 to 213 | O=C1C(=C2CC=Cc3ccccc32)CCCC1=C1CC=Cc2ccccc21 |
| 289 to 294 | CN1C(=O)C(C)(C)C(=O)Nc2cc(C#N)ccc21 |
| 73 to 74 | COCn1ncc2cc(C(=O)OC)ccc21 |
| 194 to 196 | CC(C)(C)c1ccc(C#N)cc1NC(=O)Nc1cccnc1 |
| 158 to 159 | O=C(O)COc1cc(F)cc(F)c1C(=O)NCc1ccc(Br)cc1F |
| 168 to 170 | CC(C)c1cc(Cl)cc(C(C)C)c1NC(=O)NS(=O)(=O)c1cc(C2(C)OCCO2)ccc1F |
| 143 to 144 | CCC(=NO)C(C)(C)NCC(Cn1ccnc1[N+](=O)[O-])ONC(C)(C)C(CC)=NO (centres undefined) |
| 205 to 206 | O=C1c2ccccc2C(=O)N1CC(=O)N1c2ccccc2N(Cc2ccc(Cl)cc2)C(=O)[C@H]2CCC[C@H]21 (relative stereo) |
| 148 to 151 | CC(=O)NC[C@H]1CN(c2ccc(C3=CCN(C=O)CC3)c(F)c2)C(=O)O1 |
| 151 to 153 | Brc1ccc2nc(-c3coc4ccccc34)cn2c1 |
| 54 to 56 | COC1(OCCc2nc(C(C)C)c(Sc3cc(Cl)cc(Cl)c3)n2C)CCCCCCC1 |
| 163 | O=C(C1=COc2cc(O)ccc2O1)N1CCN(C(c2ccc(F)cc2)c2ccc(F)cc2)CC1 |
| 301 to 315 | O=C1c2ccccc2C(=O)N1SN1C(=O)c2ccccc2C1=O |
| 192 to 194 | CC(=O)Nc1c(C(=O)c2ccccc2)[nH]c2ccc(Br)cc12 |
| 77 | Cc1ccc(-n2cnnc2C(F)(F)F)c(C)c1 |
| 67 to 69 | CCOC(=O)N1CCC23CCCCC12c1ccccc1CC3 (centres undefined) |

| Compound | melting point [°C] |
| --- | --- |
| NC1(CO)CCCNC1=O (centres undefined) | 145 |
